Counter-ions that a name gives are not always drawn. Values belong to the compound of their own block, whether it stands above or below them.
What was measured:
cultured astrocytes = assay: RNA-seq of cultured astrocytes compared with MS patient white matter astrocytes (GSE83670); type: cell-based, human; conditions: cultured astrocytes vs. LCM-dissected MS patient astrocytes
Experimental: Previously, Waller et al. 2016 (J Neuroimmunol 299:139-146) used laser capture microdissection (LCM) to isolate astrocytes from normal appearing white matter in MS patients and CTL subjects (GEO dataset GSE83670; PMID: 27125112).
cDNA sequencing was performed by the University of Michigan sequencing core facility (50 cycle single end Illumina HiSeq 2000). The FASTX-Toolkit was used to filter reads by removing low quality sequences and initial quality assessments were performed using FastQC. Quality-filtered reads were mapped to the human genome (hg38/GRCh38, UCSC) using tophat2 with default settings, except multi-mapping of reads to multiple genome locations was disallowed (settings: -g 1 —no-coverage-search). The hg38/GRCh38 genome is the most recent release available from UCSC. HTSeq was used to tabulate the number of reads mapping to each genome feature and Cufflinks was used to calculate FPKM estimates and associated confidence intervals. RSeQC was used to assess quality of mapping and calculate the percentage of mapped reads. The negative binomial model (edgeR) was used to evaluate differential expression, with read counts normalized using the weighted trimmed mean of M-values method, and dispersions estimated using the Cox-Reid (CR)-adjusted likelihood approach. Differential expression analyses were performed using genes with detectable expression in at least 1 of 4 samples involved in a given comparison. A gene was considered to have detectable expression in a sample if the count per million mapped reads (cpm) estimate was greater than 0.20 and if the lower bound of the FPKM 95% confidence interval was greater than zero.
FIG. 3 presents in scatterplot and histogram format the results of the study on the astrocytes. Scatterplots (A) and (D) compare fold change (FC) estimates in DMF-treated (A) and IDMF-treated (D) astrocytes to LCM-dissected astrocytes in MS patients and healthy controls (CTLs). Each point represents a protein-coding gene and the light colored ellipses outline the 90% of genes closest to the bivariate mean based upon the Mahalanobis distance. The Spearman rank correlation coefficient estimate is shown (upper-left). The proportion of genes within each quadrant is indicated in the upper margin (P<0.05, Fisher's exact test), wherein the quadrants are defined by a vertical and horizontal line through the “1” in each axis with the proportion corresponding, left to right to the upper left, the upper right, the lower right and lower left quadrants, respectively. Gene set overlap is presented in (B), (C), (E) and (F) wherein genes within each set were altered with a P<0.05 threshold. P-values from the test of overlap significance are shown (bottom margin, Fisher's exact test). […]

human fetal astrocytes = assay: A1 v A2 marker activation, RNA-seq of H2O2-stimulated astrocytes; type: cell-based; conditions: 2.5 μM, 24 hrs, H2O2 (50 μM) stimulated
Experimental: The treated cells were stimulated with H2O2 (50 μM) for 20 min and the RNA extracted 1 day later and sequenced using the Illumina HiSeq 2000 with an average of 39.3 million reads per sample. Reads were mapped to the GHch38/hg38 genome. 13,968 protein-coding genes had detectable expression on average among the 6 samples. Differentially expressed genes (DEGs) were identified using negative binomial models with FDR threshold of <0.10 and fold change (FC) criteria (FC>1.30 or FC<0.77). Gene set enrichment testing was performed using public database annotations. Motif enrichment with respect to DEG up-stream regions was characterized using semiparametric generalized additive logistics models. The overlap between the identified DEGs and MS-associated genes, i.e., genes from MS patients and genes linked to inflammatory (A1) and ischemic (A2) astrogliosis.

[1] = biological target: T1, carboxylesterase 2 (CES2) (Homo sapiens, UniProt O00748); assay: Carboxylesterase hydrolysis IDMF v DMF; type: in vitro ADME; conditions: for remaining parent compound: 1 mg/ml CES2, 37° C., pH 7.4
T1 sequence (O00748 27-559): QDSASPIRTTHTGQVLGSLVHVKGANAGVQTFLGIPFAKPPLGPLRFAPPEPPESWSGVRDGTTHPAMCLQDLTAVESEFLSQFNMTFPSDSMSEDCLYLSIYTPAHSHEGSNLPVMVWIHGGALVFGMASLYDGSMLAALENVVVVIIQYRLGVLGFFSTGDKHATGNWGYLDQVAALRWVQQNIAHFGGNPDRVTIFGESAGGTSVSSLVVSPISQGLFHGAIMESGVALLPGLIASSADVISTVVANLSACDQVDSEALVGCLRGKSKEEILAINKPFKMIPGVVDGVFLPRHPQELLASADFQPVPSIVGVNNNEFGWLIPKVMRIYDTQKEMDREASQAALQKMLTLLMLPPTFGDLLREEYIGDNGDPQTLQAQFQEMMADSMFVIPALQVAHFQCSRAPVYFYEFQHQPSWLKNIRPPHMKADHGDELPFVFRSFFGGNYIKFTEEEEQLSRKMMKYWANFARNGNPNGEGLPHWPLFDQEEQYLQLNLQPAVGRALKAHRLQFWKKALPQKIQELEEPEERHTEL
Experimental: IDMF and DMF were subjected to carboxylesterase hydrolysis. […] 1 mg/ml carboxylesterase 2 (CES2) was added to each solution and the solutions incubated at 37° C. for the time periods set forth in Table 5. […] Isosorbide was quantified using CAD. Mobile phase used for the study: 0.1% Formic acid in water; B: Methanol. Column: Luna C18 4.6 mm×100 mm, 5 u (Phenomenex). Flow rate: 1.0 ml/min.

MS = MS patients, oral therapy; cited from earlier work
[2] = tested on: patients with relapsing remitting MS (RRMS); conditions: cited from earlier work
[3] = tested on: human fetal astrocytes derived from cerebral cortex; assay: Transcriptome analysis of astrocyte cultures treated with MMF, DRF, IDMF; type: cell-based; conditions: 2.5 μM, 24 hours
Experimental: (§1) Experiments were performed using human fetal astrocytes derived from cerebral cortex (cat. no. 882A-05f; Cell Applications, Sant Diego, Calif.). Cells were grown to subconfluence in human astrocyte growth medium (cat. no. 820-500, Cell Applications). […] Test materials were added to subconfluent cultures at a concentration of 2.5 μM and cells were incubated for 24 hours.
(§2) RNA was extracted following the incubation period using the RNAeasy Mini Plus kit (Qiagen, Hilden, Germany) and robotic Qiacube Connect station (Qiagen). Samples were shipped on dry ice to the Thermo Fisher Microarray Research Services Laboratory (Santa Clara, Calif.) for transcriptome analysis. RNA quality analysis was performed upon sample receipt using the NanoDrop Lite (Thermo Fisher Scientific, Waltham, Mass.). All samples had 260/280 nm absorbance ratios higher than 1.90, consistent with high-purity RNA.
In follow-up to the study of Example, 1 above, genes associated with multiple sclerosis were identified based upon seven established database sources: (1) the NHGRI-EBI genome-wide association (GWA) study catalogue, (2) the Disease Ontology (DO) database, (3) the DisGeNET (curated) database, (4) the DisGeNET (BeFree), (5) MalaCards, (6) the Medical Subject Heading (MESH) database and the KEGG Database. The impact on gene expression of IDMF, MMF and DRF on the key overlapping MS-associated genes was assessed.
The specific data for four of the key NFR2 target genes associated with antioxidant and anti-inflammatory effects is presented in FIGS. 7(A) thru 7(D).
Both TNFAIP3 and NFKBIA encode inhibitory proteins that suppress the NF-KB pathway. Specifically, TNFAIP3 encodes a deubiquitinating enzyme previously linked to MS by genetic association studies: a TNFAIP3 protein abundance is increased in white matter and cortical lesion astrocytes from MS patient brains. Similarly, NFKBIA (IκBα) encodes an NF-KB inhibitor for which promoter polymorphisms have been associated with MS and abundance of this protein is prominent in macrophage nuclei of MS plaques undergoing active demyelination. ICAM1 encodes an endothelial adhesion molecule that promotes leucocyte extravasation and is associated with the initiation and progression of inflammation as well as the targeting of inflammation in the central nervous system (CNS). FIGS. 9(A), 9(B) and 9(C) show the specific data for these three genes.
Genetic variants of IFR has been associated with MS and some MS treatments such as glatiramer acetate block cytokine-stimulated IRF1 up-regulation. An assessment was undertaken to assess the relative impact of fumarate esters, namely MMF, DRF and IDMF on IFR motif enrichment.

[4] = tested on: human fetal astrocytes derived from cerebral cortex; assay: Comparative RT-PCR evaluation of selected genes in astrocytes; type: cell-based
Experimental: as §1, §2
The expression of selected genes was further evaluated using RT-PCR. cDNA was prepared using the AzuraQuant cDNA kit (Azura Genomics, Raynham, Mass.) and PCR reactions were performed using the BioRad iCycler iQ Detection System with Fast Green qPCR Master Mix—Fluor (Azura Genomics). PCR primers were purchased from Realtimeprimers (Elkins Park, Pa.). The ΔΔCt method [Livak K. J. and Schmittgen T. D. Analysis of relative gene expression data using real-time quantitative PCR and the 2(−Delta Delta C(T)) Method. Methods (San Diego, Calif.) 25(4):402-408, 2001]. was used to estimate fold changes with cycle threshold values normalized based upon the expression of glyceraldehyde-3-phosphate dehydrogenase (GAPDH).

[5] = biological target: T1, carboxylesterase 2 (CES2); assay: Carboxylesterase hydrolysis IDMF v DRF; type: in vitro ADME; conditions: 20 μl of 1 mg/ml CES2, 37° C., pH 7.4
Experimental: 20 μl of 1 mg/ml carboxylesterase 2 (CES2) was added to each solution and the solutions incubated at 37° C. for the time periods set forth in Table 5. […] Although tolerable for normal patients, HES is undesirable and detrimental for those individuals have kidney and/or liver issues

[6] = tested on: patients with Relapsing-Remitting Multiple Sclerosis; conditions: cited from earlier work
[7] = in vivo; cited from earlier work
[8] = DEFINE and CONFIRM phase III trials
[9] = DRF 462 mg BID, 96-week study (EVOLVE-MS-1)

Structure (SMILES): COC(=O)/C=C/C(=O)OC [DMF, Dimethyl fumarate]
correlation of genome-wide expression responses with those observed in MS patients (Spearman r) (cultured astrocytes): 0.23 | ICAM1 expression (human fetal astrocytes): no similar activity | expression of genes linked to A1-polarization (human fetal astrocytes): tended to increase expression | expression of genes linked to A2-polarization (human fetal astrocytes): decreased expression | remaining parent compound ([1]; 0 minutes): 1 mM | remaining parent compound ([1]; 30 minutes): 0.166 mM | remaining parent compound ([1]; 60 minutes): 0.08 mM | remaining parent compound ([1]; 120 minutes): 0.014 mM | time by which essentially all is hydrolyzed ([1]; CES2, 37° C.): ≤ 60 min | fraction not hydrolyzed to MMF ([1]; within thirty minutes): about 17% | Disability reduction, % (MS): 38% | Gadolinium enhancement reduction, % (MS): 74-90% | Relapse rate reduction vs. placebo, % (MS): 44-53% | Side effects (MS): Flushing, | T2w lesion reduction, % (MS): 71-85% | flushing, most reported adverse effect [2, 8]: 24-38% | specific gastrointestinal (GI) adverse effects (nausea, vomiting, diarrhea, upper abdominal pain), patients [2, 8]: 7 to 19% | patients who experienced adverse GI effects ([2]; after 1 year, in these trials): 36% | discontinuation of DMF due to GI side effects, patients ([2]; real-world settings): 5-19%

remaining parent compound ([5]; 0 minutes): 1 mM | remaining parent compound ([5]; 15 minutes): .652 mM | remaining parent compound ([5]; 30 minutes): 0.482 mM | remaining parent compound ([5]; 60 minutes): 0.273 mM | remaining parent compound ([5]; 120 minutes): 0.08 mM
Structure (SMILES): COC(=O)/C=C/C(=O)OCCN1C(=O)CCC1=O [DRF, diroximel fumarate]
effect on TNFAIP3, NFKBIA and ICAM1 expression [3]: effectively no effect | OSGIN1 expression ([4]; FIG. 11(B)): suppression | expression of key MS-associated genes (IL-6, ICAM1, MALT1, TNFAIP3, IRF1, CXCL8) ([4]; FIGS. 11(C) through 11(H)): negligible effect | reduction of number of days with at least moderate GI symptoms ([6]; 5-week study, DRF 462 mg BID as compared to DMF 240 mg BID): 46% | discontinuation due to adverse GI effects, patients [6, 9]: 6.3% | patients who developed adverse GI effects [6, 9]: 30.9% | RDC-8439 and methanol generated as minor products [7]: < 10% | fraction metabolized to HES and MMF [7]: > 90%

Structure (SMILES): CCCCCCCCc1ccc(CCC(N)(CO)CO)cc1 [Fingolimod]
Side effects (MS): First dose

Structure (SMILES): C/C(O)=C(\C#N)C(=O)Nc1ccc(C(F)(F)F)cc1 [Teriflunomide]
Side effects (MS): Gl, hair thinning,

Source: patent US20220142967A1, “Methods and Compositions for the Treatment of Multiple Sclerosis” (SYMBIONYX PHARMACEUTICALS INC, priority 2018, published 2022)
